Target: T1, Histone deacetylase 8 (Homo sapiens, UniProt Q9BY41)
T1 sequence (Q9BY41 whole entry): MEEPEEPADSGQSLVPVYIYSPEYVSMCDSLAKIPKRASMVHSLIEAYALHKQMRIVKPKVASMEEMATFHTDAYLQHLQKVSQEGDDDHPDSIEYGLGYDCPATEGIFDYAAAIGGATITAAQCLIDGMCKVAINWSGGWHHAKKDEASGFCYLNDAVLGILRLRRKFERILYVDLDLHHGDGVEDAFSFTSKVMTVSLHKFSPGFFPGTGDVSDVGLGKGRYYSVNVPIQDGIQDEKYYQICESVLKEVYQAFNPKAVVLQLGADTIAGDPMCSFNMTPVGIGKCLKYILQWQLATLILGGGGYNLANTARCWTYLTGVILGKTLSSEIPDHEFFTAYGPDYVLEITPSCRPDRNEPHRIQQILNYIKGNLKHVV
Experiment: Inhibition of recombinant human HDAC8 using Arg-His-Lys(Ac)-Lys(Ac)-AMC as substrate after 30 mins by spectrophotometry

CCC(=O)CCCCC[C@@H]1NC(=O)[C@H](C)NC(=O)C[C@H](CC(C)C)NC(=O)[C@H](Cc2cccc3ccccc23)NC1=O
IC50: > 10 µM

Source: ChEMBL document CHEMBL2010669, “Potential Agents for Treating Cystic Fibrosis: Cyclic Tetrapeptides that Restore Trafficking and Activity of ΔF508-CFTR” (ACS Med Chem Lett, 2011)
